Results taken from patent publication US4046910A, “Dosage schedule” (The Upjohn Company, priority 1976, dated 1977).
Structures can show the parent of a compound that is named as a salt.

Legend:
[1] = test system: allergic manifestations caused by antigen-antibody interaction; details: tris(hydroxymethyl)aminomethane salts; U.S. Ser. No. 233,772 and 261,524; cited from earlier work
[2] = test system: rat passive cutaneous anaphylaxis; experiment: rat passive cutaneous anaphylaxis (PCA) test; assay type: in vivo, rat (female Sprague-Dawley); set-up: key to Spot Score: total detectable spots divided by number of animals; details: for % Inhibition in Rat PCA: 48 hour sensitization
Excerpt: The compound under review is first tested in the rat passive cutaneous anaphylaxis test system. This test is employed to determine if the compound does inhibit allergic manifestations. A DSCG biologue will inhibit allergic manifestations. The anti-allergy activity of DSCG biologues vary.
Female Sprague-Dawley 250 gm. rats are skin-sensitized with rat anti-ovalbumin homocytotropic antibody that is heat labile and has a passive cutaneous anaphylaxis titer of (1:128). After a 72-hour latency period, the animals are challenged i.v. with a 4 mg. ovalbumin (OA) + 5 mg. Evans blue dye. Thirty minutes later the extravascular bluing that results from antigen antibody combination at the skin site is read. Antibody dilutions are used such that in control animals a 4 mm spot in the lowest detectable spot, and 4 or 5 lower dilutions are used to give a range of antibody in each animal. Four to five animals are used for each variable in the experiment. Percent inhibition of the PCA assay is calculated by comparing the spot scores of DSCG treated rats with the spot scores of control rats. The spot score is the total number of detectable spots over the number of animals.
DSCG Priming Treatment: Passively sensitized rats are injected i.v. 2.0 hours before antigen challenge i.v. Two hours after an i.v. priming dose of 10 mg./kg. DSCG, the rats are challenged with antigen alone.
The time course of the effective life of DSCG in rats is shown in Table I. DSCG was administered i.p. and was followed by i.v. challenge with 4 mg. ovalbumin and 5 mg. of Evans Blue. Spot score was calculated 30 minutes later from a total of four animals for each time point.
The animals are rested 2 hours between primary i.v. DSCG injection and i.v. antigen challenge, including secondary DSCG dosing. In view of Table I, this time period is of such a length that the effect from the initial dose of DSCG is not a significant factor.
The effect of a time lag between priming doses and secondary doses with regard to the drug sparing effect and the responsiveness of the treated mammal to further treatment with DSCG or a DSCG biologue is shown in Table III. Rats were injected once daily with 10 mg./kg. DSCG for three days. Control rats were also injected with 1.0 ml. of saline at the same time. Twenty and 48 hours after the last dose of DSCG in the three dose series all rats were injected with DSCG. 4 mg. ovalbumin, and 5 mg. of Evans Blue dye.
Th sparing effect using a DSCG biologue, the tris(hydroxymethyl)aminomethane salt of 10-chloro-1,4,6,9-tetrahydro-4,6-dioxopyrido[3,2-g]quinoline-2,8-dicarboxylic acid, referred to as Compound 10 Cl in this Example, is shown in the rat PCA of Table IV. When using this compound in a priming situation, 2.0 mg./kg., 1.0 mg./kg., 0.025 mg./kg. and 0.01 mg./kg. give inhibitions of 93, 86, 44 and 0% respectively. The data of Table IV are obtained in the usual manner except that a 48 hour instead of a 72 hour sensitization period was used.

[3] = test system: allergic and anaphylactic conditions; details: cited from earlier work
[4] = man; cited from earlier work
mediators of anaphylaxis = details: cited from earlier work
[5] = 10 mg./kg. i.p., 5 min before i.v. challenge
[6] = 10 mg./kg. i.p., 7 min before i.v. challenge
[7] = 10 mg./kg. i.p., 10 min before i.v. challenge
[8] = 10 mg./kg. i.p., 15 min before i.v. challenge
[9] = 10 mg./kg. i.p., 18 min before i.v. challenge
[10] = 10 mg./kg. i.p., 20 min before i.v. challenge
[11] = 10 mg./kg. i.p., 25 min before i.v. challenge
[12] = 10 mg./kg. i.p., 30 min before i.v. challenge
[13] = 10 mg./kg. i.p., 60 min before i.v. challenge

## Cc1c2[nH]c(C(=O)O)cc(=O)c2cc2c(=O)cc(C(=O)O)[nH]c12 [1,4,6,9-tetrahydro-10-methyl-4,6-dioxopyrido[3,2-g]quinoline-2,8-dicarboxylic acid]
[1]
  ability to prophylactically protect against allergic manifestations: have this ability to prophylactically protect against allergic manifestations

## O=C(O)c1cc(=O)c2cc3c(=O)cc(C(=O)O)[nH]c3c(Cl)c2[nH]1 [Compound 10 Cl, tris(hydroxymethyl)aminomethane salt of 10-chloro-1,4,6,9-tetrahydro-4,6-dioxopyrido[3,2-g]quinoline-2,8-dicarboxylic acid]
[2]; 0.01 mg./kg. maintenance dose, primed with 2.0 or 1.0 mg./kg.
  sparing: sparing is seen
[2]; 0.01 mg./kg. priming
  inhibition in a priming situation: 0%
[2]; 0.025 mg./kg. priming
  inhibition in a priming situation: 44%
[2]; 1.0 mg./kg. priming
  inhibition in a priming situation: 86%
[2]; 2.0 mg./kg. priming
  inhibition in a priming situation: 93%
[2]; priming 0.01 mg./kg., secondary 0.01 mg./kg.
  % Inhibition in Rat PCA: 6%
[2]; priming 0.01 mg./kg., secondary 0.025 mg./kg.
  % Inhibition in Rat PCA: 44%
[2]; priming 0.01 mg./kg., secondary 1.0 mg./kg.
  % Inhibition in Rat PCA: 71%
[2]; priming 0.01 mg./kg., secondary 2.0 mg./kg.
  % Inhibition in Rat PCA: 80%
[2]; priming 0.025 mg./kg., secondary 0.01 mg./kg.
  % Inhibition in Rat PCA: 6%
[2]; priming 0.025 mg./kg., secondary 0.025 mg./kg.
  % Inhibition in Rat PCA: 23%
[2]; priming 0.025 mg./kg., secondary 1.0 mg./kg.
  % Inhibition in Rat PCA: 52%
[2]; priming 0.025 mg./kg., secondary 2.0 mg./kg.
  % Inhibition in Rat PCA: 62%
[2]; priming 1.0 mg./kg., secondary 0.01 mg./kg.
  % Inhibition in Rat PCA: 44%
[2]; priming 1.0 mg./kg., secondary 0.025 mg./kg.
  % Inhibition in Rat PCA: 44%
[2]; priming 1.0 mg./kg., secondary 1.0 mg./kg.
  % Inhibition in Rat PCA: 44%
[2]; priming 1.0 mg./kg., secondary 2.0 mg./kg.
  % Inhibition in Rat PCA: 52%
[2]; priming 2.0 mg./kg., secondary 0.01 mg./kg.
  % Inhibition in Rat PCA: 52%
[2]; priming 2.0 mg./kg., secondary 0.025 mg./kg.
  % Inhibition in Rat PCA: 33%
[2]; priming 2.0 mg./kg., secondary 1.0 mg./kg.
  % Inhibition in Rat PCA: 14%
[2]; priming 2.0 mg./kg., secondary 2.0 mg./kg.
  % Inhibition in Rat PCA: 6%
[1]
  ability to prophylactically protect against allergic manifestations: have this ability to prophylactically protect against allergic manifestations

## O=C(O)c1cc(=O)c2c(OCC(O)COc3cccc4oc(C(=O)O)cc(=O)c34)cccc2o1 [DSCG, disodium salt of 1,3-bis(2-carboxychromon-5-yloxy)-2-hydroxypropane]
[2]; 0.1 mg. priming dose
  inhibition given as a priming dose: does not provide any inhibition
[2]; [5]
  % Inhibition: 26%
  Spot Score: 1.67
[2]; [6]
  % Inhibition: 26%
  Spot Score: 1.67
[2]; [7]
  % Inhibition: 73%
  Spot Score: 0.66
[2]; [8]
  % Inhibition: 51%
  Spot Score: 1.00
[2]; [9]
  % Inhibition: 44%
  Spot Score: 1.25
[2]; [10]
  % Inhibition: 33%
  Spot Score: 1.50
[2]; [11]
  % Inhibition: 26%
  Spot Score: 1.67
[2]; [12]
  % Inhibition: 11%
  Spot Score: 2.0
[2]; [13]
  % Inhibition: 11%
  Spot Score: 2.0
[2]; 10 mg./kg. i.p., in 30 minutes
  persistence of inhibiting effect: most of the inhibiting effect of DSCG has disappeared
[2]; 10 mg./kg. i.v. priming, antigen challenge i.v. 2 hours later
  inhibitory effect in rat PCA after priming dose alone: No inhibitory effects are observed
[2]; 10 mg./kg. priming dose
  inhibition given as a priming dose: 79%
[2]; 10 mg./kg., i.v. at challenge
  % Inhibition: 100%
  Spot Score: 0
[2]; 20 hours post priming
  drug sparing effect from the priming dosage: present at 20 hours post priming
[2]; 48 hours post priming
  drug sparing effect from the priming dosage: has disappeared at 48 hours post priming
[2]; high doses in priming and secondary dose situation
  effect of high priming doses on high secondary doses: inhibit the action of high doses of DSCG in the secondary dose situation
[2]; priming 0.1 mg./kg. i.v., secondary DSCG 0.1 mg./kg. with antigen 2 hours later
  Inhibition in Rat PCA: 2%
[2]; priming 0.1 mg./kg. i.v., secondary DSCG 1.0 mg./kg. with antigen 2 hours later
  Inhibition in Rat PCA: 39%
[2]; priming 0.1 mg./kg. i.v., secondary DSCG 10 mg./kg. with antigen 2 hours later
  Inhibition in Rat PCA: 79%
[2]; priming 1.0 mg./kg. i.v., secondary DSCG 0.1 mg./kg. with antigen 2 hours later
  Inhibition in Rat PCA: 27%
[2]; priming 1.0 mg./kg. i.v., secondary DSCG 1.0 mg./kg. with antigen 2 hours later
  Inhibition in Rat PCA: 39%
[2]; priming 1.0 mg./kg. i.v., secondary DSCG 10 mg./kg. with antigen 2 hours later
  Inhibition in Rat PCA: 98%
[2]; priming 10 mg./kg. i.v., secondary DSCG 0.1 mg./kg. with antigen 2 hours later
  Inhibition in Rat PCA: 39%
[2]; priming 10 mg./kg. i.v., secondary DSCG 1.0 mg./kg. with antigen 2 hours later
  Inhibition in Rat PCA: 51%
[2]; priming 10 mg./kg. i.v., secondary DSCG 10 mg./kg. with antigen 2 hours later, mean percent from 15 animals
  Inhibition in Rat PCA: 51%
[2]; saline i.v. 3 times, then DSCG dose 0.1
  % Inhibition in the Rat PCA: 0%
[2]; saline i.v. 3 times, then DSCG dose 1.0
  % Inhibition in the Rat PCA: 11%
[2]; saline i.v. 3 times, then DSCG dose 5.0
  % Inhibition in the Rat PCA: 47%
[2]; saline i.v. 3 times, then DSCG dose 10
  % Inhibition in the Rat PCA: 82%
[2]; secondary DSCG dose 0, 48 hours after last of three daily 10 mg./kg. DSCG
  % Inhibition in the Rat PCA: 0%
[2]; secondary DSCG dose 0.05, 20 hours after last of three daily 10 mg./kg. DSCG
  % Inhibition in the Rat PCA: 47%
[2]; secondary DSCG dose 0.05, 48 hours after last of three daily 10 mg./kg. DSCG
  % Inhibition in the Rat PCA: 2%
[2]; secondary DSCG dose 0.1, 20 hours after last of three daily 10 mg./kg. DSCG
  % Inhibition in the Rat PCA: 52%
[2]; secondary DSCG dose 0.1, 48 hours after last of three daily 10 mg./kg. DSCG
  % Inhibition in the Rat PCA: 0%
[2]; secondary DSCG dose 1.0, 20 hours after last of three daily 10 mg./kg. DSCG
  % Inhibition in the Rat PCA: 58%
[2]; secondary DSCG dose 5.0, 20 hours after last of three daily 10 mg./kg. DSCG
  % Inhibition in the Rat PCA: 20%
[2]; secondary DSCG dose 5.0, 48 hours after last of three daily 10 mg./kg. DSCG
  % Inhibition in the Rat PCA: 65%
[2]; secondary DSCG dose 10, 20 hours after last of three daily 10 mg./kg. DSCG
  % Inhibition in the Rat PCA: 20%
[2]; secondary DSCG dose 10, 48 hours after last of three daily 10 mg./kg. DSCG
  % Inhibition in the Rat PCA: 73%
[3]; administered in a prophylactic manner
  relief from allergic and anaphylactic conditions: provides relief from allergic and anaphylactic conditions
[3]; same dose level, significant number of individuals
  inhibition of allergic manifestations on continuing administration: lower levels of inhibition which may be clinically ineffective
[4]
  serum half life: approximately 2 minutes

## CCCCC[C@H](O)/C=C/[C@H]1[C@H](O)CC(=O)[C@@H]1CCCCCCC(=O)O [Prostaglandin E1]
Mediators of anaphylaxis
  response in the DSCG biologue tests: respond appropriately to some of the tests but not all of them

## CCCCC[C@H](O)/C=C/[C@H]1[C@H](O)CC(=O)[C@@H]1C/C=C\CCCC(=O)O [Prostaglandin E2]
Mediators of anaphylaxis
  response in the DSCG biologue tests: respond appropriately to some of the tests but not all of them

## O=C(O)c1cc(=O)c2cc(-c3ccc4[nH]c(C(=O)O)cc(=O)c4c3)ccc2[nH]1 [tris(hydroxymethyl)aminomethane salt of 1,1',4,4'-tetrahydro-4,4'-dioxo[6,6'-biquinoline]-2,2'-dicarboxylic acid]
[1]
  ability to prophylactically protect against allergic manifestations: have this ability to prophylactically protect against allergic manifestations
